# Reference: patent publication US6368788B1 (priority 1987, dated 2002)
# Where two headings read alike, the source gives them in different places.
# Tests used:
# [1] = Drug allergies to antibiotics; parameters: species or system human; conditions: in vivo
# Protocol: L-Glu-L-Trp was administered to 76 patients having clinical histones of allergies to antibiotics, during the period of administration of the antibiotic. A control group consisted of 43 patients with similar antibiotic drug allergies. L-Glu-L-Trp was administered im on a daily basis for 5-10 days at a dosage of 100 μg, or alternatively, intranasally at a dosage of 1 μg/kg over the same 5-10 day period. […] Allergic reactions were pronounced in the control group with signs of drug intolerance.
# influenza [2] = tested on: influenza; parameters: species or system human; conditions: in vivo
# [3] = tested on: peripheral blood lymphocytes; assay: Protocol A3 Group 1B: atypical pyoderma; assay type: in vivo, human
# influenza [4] = conditions: vs control group
# Protocol: Sixty-six (66) hospitalized patients between the ages 18-20 years with confirmed influenza infections were admitted into the trial. Of the patients, 12 were determined to be severely infected, and the remaining 54 seriously infected and in need of hospitalization.
# [5] = Ophthalmic diseases, parabulbar or conjunctival instillation; assay type: in vivo, human
# Protocol: Forty one patients (41; 17 men and 24 women; ranging in age from 17 to 68 years) with various eye diseases of infectious and non-infectious origin were treated with L-Glu-L-Trp. Patients having the following infectious, and non-infectious, ophthalmic diseases were entered into the trial: a) nonviral conjunctivitis, keratitis, chronic uveitis, persistent sties, and, focal chorioretinitis; and, b) retinal pigment dystrophy, Grenblad-Stranberg syndrome, and maculophathy, respectively. Five patients were Class II invalids due to vision impairment, 4 were Class III, and 32 were impaired but not invalid. […] L-Glu-L-Trp was administered daily in a single 0.1 mL (10 μg) dose by the parabulbar route (Group 1; n=21), or alternatively one drop of the dipeptide solution (5 μg) was delivered into the conjunctival cavity twice daily on each of 5 consecutive days (Group 2; n=20). Thirty six patients undergoing conventional therapy served as a control group (Group 3; n=36).
# Clinical diagnoses of patients entered into Group 1 were as follows: 4 subjects had diagnosed adenoviral conjunctivitis; 2 subjects, recurring eyelid sties; 3 subjects, chronic serous-plastic uveitis; 3 subjects, central chorioretinitis; 5 subjects, central retinal dystrophy in both eyes; 4 subjects, pigment degeneration of the retina.
# Clinical diagnoses of patients entered into Group 2 were as follows: namely, 7 subjects had diagnosed chronic serous-plastic uveitis, and 13 subjects adenoviral conjunctivitis.
# Vision was assessed using standard measurements: i.e., field of vision, visual acuity, electrophysiological indices. Ophthalmascopic examination was used to evaluate and score corneal epithelial integrity, extent of edema and infiltration of the cornea (all strata), uveitis, retinal inflammation (edema, focal and peripheral changes, exudation, hemorrhage, plasmohemorrhagia), and expansion in the vitreous body. Immune parameters in peripheral blood were also assessed. Following treatment, the trial subjects were followed for not less than 12 months.
# [6] = Group 1B atypical pyoderma, after L-Glu-L-Trp Therapy (n = 10)
# [7] = Following Stage 2, Abscess and indurative acne
# [8] = Following Stage 2, Chronic abscess pyoderma
# [9] = Following Stage 2, Papular-pustular acne
substance,measurement,setting,value
L-Glu-L-Trp,Patients in whom development of allergic reactions was prevented,[1],70%
same,Clinical outcome,influenza [2],significantly decreased the incidence of sickness in the vaccinated subjects for a period of 12 months
same,B-Lymphocytes,[3]; [6],0.14 ± 0 ×10^9/L
same,B-Lymphocytes % Normal Value,[3]; [6],(29%)
same,B-Lymphocytes (%),[3]; [6],8.5 ± 1%
same,Basophils (%),[3]; [6],0.1 ± 0%
same,Eosinophils (%),[3]; [6],0.5 ± 1%
same,Erythrocytes,[3]; [6],4.1 ± 0.1 10^12/L
same,IgA,[3]; [6],2.21 ± 0 g/L
same,IgA % Normal Value,[3]; [6],(117%)
same,IgG,[3]; [6],16.6 ± 2 g/L
same,IgG % Normal Value,[3]; [6],(154%)
same,IgM,[3]; [6],1.64 ± 0 g/L
same,IgM % Normal Value,[3]; [6],(104%)
same,Leukocytes,[3]; [6],6.2 ± 1 ×10^9/L
same,Leukocytes % Normal Value,[3]; [6],(93%)
same,Lymphocytes,[3]; [6],2.14 ± 0 ×10^9/L
same,Lymphocytes % Normal Value,[3]; [6],(76%)
same,"Lymphocytes, %",[3]; [6],34.5 ± 4%
same,"Monocytes, %",[3]; [6],2.3 ± 1.6%
same,"Neutrophils, %",[3]; [6],66.5 ± 3.2%
same,T-Lymphocytes,[3]; [6],0.87 ± 0 ×10^9/L
same,T-Lymphocytes % Normal Value,[3]; [6],(51%)
same,T-Lymphocytes (%),[3]; [6],55.1 ± 6%
same,T-helper,[3]; [6],0.53 ± 0 ×10^9/L
same,T-helper % Normal Value,[3]; [6],(40%)
same,T-helper (%),[3]; [6],32.1 ± 3%
same,T-suppressor,[3]; [6],0.49 ± 0 ×10^9/L
same,T-suppressor % Normal Value,[3]; [6],(126%)
same,T-suppressor (%),[3]; [6],23.1 ± 5%
same,"Blast Transform., Con-A","[3]; Group 1B, L-Glu-L-Trp Therapy",96.1 ± 4 % of PBL
same,"Blast Transform., PHA","[3]; Group 1B, L-Glu-L-Trp Therapy",87.5 ± 5 % of PBL
same,"Blast Transform., Staph-A","[3]; Group 1B, L-Glu-L-Trp Therapy",75.3 ± 1 % of PBL
same,Clinical outcome,[3]; in vivo,did not turn out to be effective clinically
same,Lower incidence of respiratory complications,influenza [4],3.5 times
same,Patients with “good response”,"[5]; Group 1, parabulbar",9
same,Patients with “marked favorable response”,"[5]; Group 1, parabulbar",9
same,Patients with “good response”,"[5]; Group 2, instillation",2
same,Patients with “marked favorable response”,"[5]; Group 2, instillation",18
same,Laboratory effects,[5]; in vivo,increase in the number of circulating peripheral blood B- and T-lymphocytes
same,Patients with “poor response”,[5]; in vivo,3
same,Subjects in whom treatment was found effective,[5]; infectious eye diseases,66.7%
same,Patients with marked positive response,"[5]; infectious eye diseases, parabulbar introduction",75%
same,Patients with good response,[5]; instillation,10%
same,Patients with marked positive response,[5]; instillation,90%
same,"Faster recovery than control group, adenoviral conjunctivitis",[5]; marked responses,10 to 13 days
same,"Rise in visual acuity, chronic serous-plastic uveitis",[5]; marked responses,> 0.1
same,Patients with good response,[5]; parabulbar introduction,15%
same,"Blast Transformation, Con-A",Staphylococci; After L-Glu-L-Trp Therapy,58.3 ± 3.9%
same,"Blast Transformation, HSA",Staphylococci; After L-Glu-L-Trp Therapy,84.9 ± 5.5%
same,"Blast Transformation, PHA",Staphylococci; After L-Glu-L-Trp Therapy,40.2 ± 3.9%
same,Number of Patients with Clinical Result: Improved,Staphylococci; [7],1
same,Number of Patients with Clinical Result: Recovered,Staphylococci; [7],4
same,Number of Patients with Clinical Result: Significantly Improved,Staphylococci; [7],1
same,Number of Patients with Clinical Result: Recovered,Staphylococci; [8],5
same,Number of Patients with Clinical Result: Significantly Improved,Staphylococci; [8],2
same,Number of Patients with Clinical Result: Recovered,"Staphylococci; Following Stage 2, Chronic furunculitis",10
same,Number of Patients with Clinical Result: Recovered,"Staphylococci; Following Stage 2, Chronic relapsing folliculitis gravis",1
same,Number of Patients with Clinical Result: Recovered,"Staphylococci; Following Stage 2, Chronic relapsing osteofolliculitis",3
same,Number of Patients with Clinical Result: Significantly Improved,"Staphylococci; Following Stage 2, Chronic ulcerative pyoderma",2
same,Number of Patients with Clinical Result: Recovered,Staphylococci; [9],4
same,Number of Patients with Clinical Result: Significantly Improved,Staphylococci; [9],3
same,Number of Patients with Clinical Result: Improved,"Staphylococci; Following Stage 2, Totals",1
same,Number of Patients with Clinical Result: No Effect,"Staphylococci; Following Stage 2, Totals",0
same,Number of Patients with Clinical Result: Recovered,"Staphylococci; Following Stage 2, Totals",27
same,Number of Patients with Clinical Result: Significantly Improved,"Staphylococci; Following Stage 2, Totals",8
same,Number of Patients with Clinical Result: Worse,"Staphylococci; Following Stage 2, Totals",0
same,B-Lymphocytes,Staphylococci; L-Glu-L-Trp Treatment (n = 36),0.28 ± 0.04 ×10^9/L
same,B-Lymphocytes % Normal Value,Staphylococci; L-Glu-L-Trp Treatment (n = 36),(57%)
same,B-Lymphocytes (%),Staphylococci; L-Glu-L-Trp Treatment (n = 36),12.1 ± 1.5%
same,C3,Staphylococci; L-Glu-L-Trp Treatment (n = 36),0.77 ± 0.02 g/L
same,"C3, % Normal Value",Staphylococci; L-Glu-L-Trp Treatment (n = 36),(92%)
same,Erythrocyte Sed. Rate,Staphylococci; L-Glu-L-Trp Treatment (n = 36),1.2 ± 1.4 mm
same,IgA,Staphylococci; L-Glu-L-Trp Treatment (n = 36),2.40 ± 0.18 g/L
same,IgA % Normal Value,Staphylococci; L-Glu-L-Trp Treatment (n = 36),(126%)
same,IgG,Staphylococci; L-Glu-L-Trp Treatment (n = 36),15.5 ± 0.73 g/L
same,IgG % Normal Value,Staphylococci; L-Glu-L-Trp Treatment (n = 36),(135%)
same,IgM,Staphylococci; L-Glu-L-Trp Treatment (n = 36),1.25 ± 0.12 g/L
same,IgM % Normal Value,Staphylococci; L-Glu-L-Trp Treatment (n = 36),(109%)
same,Imm. Cmplx.,Staphylococci; L-Glu-L-Trp Treatment (n = 36),45.9 ± 4.9 Units
same,Leukocytes,Staphylococci; L-Glu-L-Trp Treatment (n = 36),7.75 ± 0.33 ×10^9/L
same,Leukocytes % Normal Value,Staphylococci; L-Glu-L-Trp Treatment (n = 36),(115%)
same,Lymphocytes,Staphylococci; L-Glu-L-Trp Treatment (n = 36),2.41 ± 0.14 ×10^9/L
same,Lymphocytes % Normal Value,Staphylococci; L-Glu-L-Trp Treatment (n = 36),(120%)
same,"Lymphocytes, %",Staphylococci; L-Glu-L-Trp Treatment (n = 36),30.8 ± 1.4%
same,Monocytes,Staphylococci; L-Glu-L-Trp Treatment (n = 36),0.43 ± 0.04 ×10^9/L
same,"Monocytes, %",Staphylococci; L-Glu-L-Trp Treatment (n = 36),5.65 ± 0.40%
same,"Monocytes, % Normal Value",Staphylococci; L-Glu-L-Trp Treatment (n = 36),(78%)
same,NK activity,Staphylococci; L-Glu-L-Trp Treatment (n = 36),45.18 ± 2.55 % cytotox.
same,Neutrophils,Staphylococci; L-Glu-L-Trp Treatment (n = 36),4.54 ± 0.25 10^9/L
same,"Neutrophils, %",Staphylococci; L-Glu-L-Trp Treatment (n = 36),59.8 ± 1.5%
same,"Neutrophils, % Normal Value",Staphylococci; L-Glu-L-Trp Treatment (n = 36),(103%)
same,Phag. Index,Staphylococci; L-Glu-L-Trp Treatment (n = 36),5.31 ± 0.20
same,Phagocytic Cells,Staphylococci; L-Glu-L-Trp Treatment (n = 36),2.36 ± 0.27 ×10^9/L
same,"Phagocytic Cells, % Normal Value",Staphylococci; L-Glu-L-Trp Treatment (n = 36),(89%)
same,Surface Ig + B-Lym,Staphylococci; L-Glu-L-Trp Treatment (n = 36),0.34 ± 0.05 ×10^9/L
same,"Surface Ig + B-Lym, %",Staphylococci; L-Glu-L-Trp Treatment (n = 36),16.9 ± 1.7%
same,"Surface Ig + B-Lym, % Normal Value",Staphylococci; L-Glu-L-Trp Treatment (n = 36),(117%)
same,T4^+/T8^+ Ratio,Staphylococci; L-Glu-L-Trp Treatment (n = 36),1.32 ± 0.11
same,T-Lymphocytes,Staphylococci; L-Glu-L-Trp Treatment (n = 36),1.68 ± 0.12 ×10^9/L
same,T-Lymphocytes % Normal Value,Staphylococci; L-Glu-L-Trp Treatment (n = 36),(99%)
same,T-Lymphocytes (%),Staphylococci; L-Glu-L-Trp Treatment (n = 36),69.3 ± 1.9 %
same,T-helper % Normal Value,Staphylococci; L-Glu-L-Trp Treatment (n = 36),(71%)
same,T-helper (OKT4+),Staphylococci; L-Glu-L-Trp Treatment (n = 36),0.46 ± 0.05 ×10^9/L
same,T-helper (OKT4+) %,Staphylococci; L-Glu-L-Trp Treatment (n = 36),20.3 ± 2.9%
same,T-suppressor % Normal Value,Staphylococci; L-Glu-L-Trp Treatment (n = 36),(95%)
same,T-suppressor (OKT8+),Staphylococci; L-Glu-L-Trp Treatment (n = 36),0.39 ± 0.04 ×10^9/L
same,T-suppressor (OKT8+) %,Staphylococci; L-Glu-L-Trp Treatment (n = 36),17.1 ± 1.9%
same,"T-lymphocytes, T4+ lymphocytes, T4+/T8+ ratio and NK activity relative to normal healthy volunteers",Staphylococci; after treatment,> 70%
same,Patients with considerable (significant) improvement,Staphylococci; combination therapy,8
same,Patients with improvement,Staphylococci; combination therapy,1
same,Patients with clinical (complete) recovery,"Staphylococci; combination therapy, 36 patients",27
same,Surface IgG+ lymphocytes,Staphylococci; following Stage 2,0.19±0.023 ×10^9/L
same,Patients with clinically manifested increased antibiotic sensitivity in vivo,Staphylococci; in vivo,55-75%
same,"Clinical recovery, papulous pustular acne",Staphylococci; of 7 patients,4
same,"Complete clinical recovery, chronic abscessing pyoderma",Staphylococci; of 7 patients,5
same,"Clinical recovery, abscessing and indurative acne",Staphylococci; of 10 patients,6
